Results from patent publication US20170253607A1, “LONG-ACTING HIV PROTEASE INHIBITOR” (Shionogi & Co., Ltd., priority 2014, published 2017).

Tests used:
[1] = Evaluation of total body clearance (CLtot), intravenous administration; assay type: in vivo, Sprague-Dawley (SD); conditions: rat (SD), intravenous administration 0.5-10 mg/kg; CLtot = dose/AUC
Description: Dose: Intravenous administration with designated doses was selected. (Doses were changed depending on compounds.) • 0.5-10 mg/kg (n=2-3) Preparation of dosing formulation: The dosing solution was prepared by dissolving in an adequate solvent. Administration method: The dosing solution was injected into the tail vein by a syringe with a needle Blood sampling: The blood was collected at the scheduled time and obtained the plasma. Plasma concentrations of the compound were measured by LC/MS/MS. Statistical analysis: Area under the plasma concentration-time curve (AUC) of the compound was calculated by pharmacokinetic analysis software, WinNonlin™ and CLtot was calculated by dividing the dose by AUC.

[2] = target: HIV-1 PR (Human immunodeficiency virus type 1 group M subtype B, UniProt P04585); experiment: HIV-protease inhibitory activity assay (FRET peptide substrate); assay type: biochemical; conditions: Test Example 1
In short: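 Inhibition of HIV-1 protease was measured as loss of fluorescence dequenching of a HiLyte Fluor 488/QXL 520 peptide at 2 μmol/L, pH 4.8, room temperature, 60 minute reaction. IC50 was derived by nonlinear four-parameter fitting.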

| Structure (SMILES) | rat_CLt [1] [mL/min/kg] | IC50 [2] [nM] |
| --- | --- | --- |
| COc1ccc(S(=O)(=O)N(CC(C)C)CC(O)C(Cc2ccc(NCc3ccc(F)c(-c4sc5c(c4C(=O)O)CC(C)(C)CC5)c3)cc2)NC(=O)OC2COC3(C)OCCC23)cc1 (stereo not drawn) [Compound I-287] | 2.73 | 2.02 |
| COc1ccc(S(=O)(=O)N(CC(C)C)CC(O)C(Cc2ccc(N3CCC(Oc4cc(N(C)C)ccc4-c4sc5c(c4C(=O)O)CC(C)(C)CC5)C3)cc2)NC(=O)OC2COC3(C)OCCC23)cc1 (stereo not drawn) [Compound I-606] | 2.2 | 2.25 |
| COc1ccc(S(=O)(=O)N(CC(C)C)CC(O)C(Cc2ccc(N(C)Cc3cccc(C(F)(F)F)c3-c3sc4c(c3C(=O)O)CC(C)(C)CC4)cc2)NC(=O)OC2COC3(C)OCCC23)cc1 (stereo not drawn) [Compound I-537] | 0.328 | 5.5 |
| COc1ccc(S(=O)(=O)N(CC(C)C)CC(O)C(Cc2ccc(N(C)Cc3occc3-c3sc4c(c3C(=O)O)CC(C)(C)CC4)cc2)NC(=O)OC2COC3(C)OCCC23)cc1 (stereo not drawn) [Compound I-492] | 17.3 | 1.84 |
| COc1ccc(S(=O)(=O)N(CC(C)C)CC(O)C(Cc2ccc(N(C)Cc3cc4c(cc3-c3sc5c(c3C(=O)O)CC(C)(C)CC5)OCCO4)cc2)NC(=O)OC2COC3(C)OCCC23)cc1 (stereo not drawn) [Compound I-704] | 0.724 | 2.39 |
| COc1ccc(S(=O)(=O)N(CC(C)C)CC(O)C(Cc2ccc(NCc3cc(O)ccc3-c3sc4c(c3C(=O)O)CC(C)(C)CC4)cc2)NC(=O)OC2COC3(C)OCCC23)cc1 (stereo not drawn) [Compound I-561] | 4.48 | 1.35 |
| COc1ccc(S(=O)(=O)N(CC(C)C)CC(O)C(Cc2ccc(N(C)Cc3cc(N4CCN(C)CC4)ccc3-c3sc4c(c3C(=O)O)CC(C)(C)CC4)cc2)NC(=O)OC2COC3(C)OCCC23)cc1 (stereo not drawn) [Compound I-701] | 2.71 | 1.49 |
| CC1(C)CCc2sc(NC(=O)c3ccccc3CNc3ccc(CC(NC(=O)OC4COC5OCCC45)C(O)CN(CC4CCCC4)S(=O)(=O)c4ccc5ncsc5c4)cc3)c(C(=O)O)c2C1 (stereo not drawn) [Compound I-859] | 0.2 | 3.41 |
| COc1ccc(S(=O)(=O)N(CC(C)C)CC(O)C(Cc2ccc(N(C)Cc3cc4ccccc4cc3-c3sc4c(c3C(=O)O)CC(C)(C)CC4)cc2)NC(=O)OC2COC3(C)OCCC23)cc1 (stereo not drawn) [Compound I-582] | 0.179 | 9.36 |
| COc1ccc(S(=O)(=O)N(CC(C)C)CC(O)C(Cc2ccc(NCc3ncccc3C(=O)Nc3sc4c(c3C(=O)O)CC(C)(C)CC4)cc2)NC(=O)OC2COC3OCCC23)cc1 (stereo not drawn) [Compound I-882] | 0.26 | 2.28 |
| COc1ccc(S(=O)(=O)N(CC(C)C)CC(O)C(Cc2ccc(NCc3cc4ccsc4nc3-c3sc4c(c3C(=O)O)CC(C)(C)CC4)cc2)NC(=O)OC2COC3(C)OCCC23)cc1 (stereo not drawn) [Compound I-649] | 0.622 | 2.25 |
| COc1ccc(S(=O)(=O)N(CC(C)C)CC(O)C(Cc2ccc(NCC3=C(c4sc5c(c4C(=O)O)CC(C)(C)CC5)CCCCC3)cc2)NC(=O)OC2COC3(C)OCCC23)cc1 (stereo not drawn) [Compound I-524] | 0.23 | 5.03 |
| COc1ccc(S(=O)(=O)N(CC(C)C)CC(O)C(Cc2ccc(NCc3cc4ccccc4c(-c4sc5c(c4C(=O)O)CC(C)(C)CC5)n3)cc2)NC(=O)OC2COC3(C)OCCC23)cc1 (stereo not drawn) [Compound I-453] | 0.593 | 2.63 |
| COc1ccc(S(=O)(=O)N(CC(C)C)CC(O)C(Cc2ccc(NCc3ccc(C(F)(F)F)cc3-c3sc4c(c3C(=O)O)CC(C)(C)CC4)cc2)NC(=O)OC2COC3(C)OCCC23)cc1 (stereo not drawn) [Compound I-526] | 0.632 | 6.47 |
| COc1ccc(S(=O)(=O)N(CC(C)C)CC(O)C(Cc2ccc(N(C)Cc3ccc(-c4sc5c(c4C(=O)O)CC(C)(C)CC5)cc3)cc2)NC(=O)OC2COC3(C)OCCC23)cc1 (stereo not drawn) [Compound I-450] | 3.7 | 2.68 |
| COc1ccc(S(=O)(=O)N(CC(C)C)CC(O)C(Cc2ccc(N(C)Cc3ccc(C)cc3-c3sc4c(c3C(=O)O)CC(C)(C)CC4)cc2)NC(=O)OC2COC3(C)OCCC23)cc1 (stereo not drawn) [Compound I-488] | 0.501 | 2.2 |
| COc1ccc(S(=O)(=O)N(CC(C)C)CC(O)C(Cc2ccc(NCc3cc(N4CCN(C)CC4)ccc3-c3sc4c(c3C(=O)O)CC(C)(C)CC4)cc2)NC(=O)OC2COC3(C)OCCC23)cc1 (stereo not drawn) [Compound I-680] | 2.77 | 2.1 |
| CC(C)CN(CC(O)C(Cc1ccc(NCc2ccccc2-c2sc3c(c2C(=O)O)CC(C)(C)CC3)cc1)NC(=O)OC1COC2(C)OCCC12)S(=O)(=O)c1ccc2ncsc2c1 (stereo not drawn) [Compound I-467] | 2.36 | 2.42 |

| Structure (SMILES) | rat_CLt [1] [mL/min/kg] | IC50 [2] [nM] |
| --- | --- | --- |
| COc1ccc(S(=O)(=O)N(CC(C)C)CC(O)C(Cc2ccc(N(C)Cc3cc(N4CCCC4)ccc3-c3sc4c(c3C(=O)O)CC(C)(C)CC4)cc2)NC(=O)OC2COC3(C)OCCC23)cc1 (stereo not drawn) [Compound I-539] | 0.156 | 2.91 |
| COc1ccc(S(=O)(=O)N(CC(C)C)CC(O)C(Cc2ccc(NCC3CCCC3c3sc4c(c3C(=O)O)CC(C)(C)CC4)cc2)NC(=O)OC2COC3(C)OCCC23)cc1 (stereo not drawn) [Compound I-410] | 1.07 | 1.99 |
| COc1ccc(S(=O)(=O)N(CC(C)C)C[C@@H](O)[C@H](Cc2ccc(NCc3cc(-c4ccc(N(C)C)cc4)ccc3-c3sc4c(c3C(=O)O)CC(C)(C)CC4)cc2)NC(=O)O[C@H]2CO[C@@]3(C)OCC[C@@H]23)cc1 [Compound I-720] | 0.0677 | 2.42 |
| COc1ccc(S(=O)(=O)N(CC2CCCC2)CC(O)C(Cc2ccc(NCc3ccccc3-c3sc4c(c3C(=O)O)CC(C)(C)CC4)cc2)NC(=O)OC2COC3(C)OCCC23)cc1 (stereo not drawn) [Compound I-483] | 2.41 | 2.75 |
| COc1ccc(S(=O)(=O)N(CC(C)C)CC(O)C(Cc2ccc(N3CCC(Oc4ccccc4-c4sc5c(c4C(=O)O)CC(C)(C)CC5)CC3)cc2)NC(=O)OC2COC3(C)OCCC23)cc1 (stereo not drawn) [Compound I-578] | 3.16 | 2.39 |
| COc1ccc(S(=O)(=O)N(CC(C)C)CC(O)C(Cc2ccc(NCc3ccc(OC)cc3C(=O)Nc3sc4c(c3C(=O)O)CC(C)(C)CC4)cc2)NC(=O)OC2COC3(C)OCCC23)cc1 (stereo not drawn) [Compound I-580] | 0.0683 | 3.23 |
| CC1(C)CCc2sc(NC(=O)c3ccccc3CNc3ccc(CC(NC(=O)OC4COC5OCCC45)C(O)CN(CC4CCC4)S(=O)(=O)c4ccc5ncsc5c4)cc3)c(C(=O)O)c2C1 (stereo not drawn) [Compound I-862] | 0.14 | 2.61 |
| COc1ccc(S(=O)(=O)N(CC(C)C)CC(O)C(Cc2ccc(NCc3cc(-c4sc5c(c4C(=O)O)CC(C)(C)CC5)ccc3C)cc2)NC(=O)OC2COC3(C)OCCC23)cc1 (stereo not drawn) [Compound I-550] | 5.29 | 1.75 |
| COc1ccc(S(=O)(=O)N(CC(C)C)CC(O)C(Cc2ccc(N(C)Cc3ccccc3-n3nc4c(c3C(=O)O)CC3(CCCC3)CC4)cc2)NC(=O)OC2COC3(C)OCCC23)cc1 (stereo not drawn) [Compound I-466] | 1.75 | 4.28 |
| COc1ccc(S(=O)(=O)N(CC(C)C)CC(O)C(Cc2ccc(N(C)Cc3ccc(C(F)(F)F)cc3-c3sc4c(c3C(=O)O)CC(C)(C)CC4)cc2)NC(=O)OC2COC3(C)OCCC23)cc1 (stereo not drawn) [Compound I-540] | 1.5 | 27.8 |
| COc1ccc(S(=O)(=O)N(CC(C)C)CC(O)C(Cc2ccc(NCc3cc(OC)c(OC)cc3-c3sc4c(c3C(=O)O)CC(C)(C)CC4)cc2)NC(=O)OC2COC3(C)OCCC23)cc1 (stereo not drawn) [Compound I-560] | 4.5 | 1.65 |
| COc1ccc(S(=O)(=O)N(CC(C)C)CC(O)C(Cc2ccc(NCC3CCCC3c3sc4c(c3C(=O)O)CC(C)(C)CC4)cc2)NC(=O)OC2COC3OCCC23)cc1 (stereo not drawn) [Compound I-877] | 2.31 | 2.12 |
| COc1ccc(S(=O)(=O)N(CC(C)C)CC(O)C(Cc2ccc(NCc3cccc(C(F)(F)F)c3-c3sc4c(c3C(=O)O)CC(C)(C)CC4)cc2)NC(=O)OC2COC3(C)OCCC23)cc1 (stereo not drawn) [Compound I-485] | 0.45 | 2.28 |
| COc1ccc(S(=O)(=O)N(CC(C)C)CC(O)C(Cc2ccc(NC(C)c3ccccc3-c3sc4c(c3C(=O)O)CC(C)(C)CC4)cc2)NC(=O)OC2COC3(C)OCCC23)cc1 (stereo not drawn) [Compound I-603] | 5.83 | 3.65 |
| COc1ccc(S(=O)(=O)N(CC(C)C)CC(O)C(Cc2ccc(N(C)Cc3cc(-c4sc5c(c4C(=O)O)CC(C)(C)CC5)co3)cc2)NC(=O)OC2COC3(C)OCCC23)cc1 (stereo not drawn) [Compound I-448] | 5.28 | 2.31 |
| COc1ccc(S(=O)(=O)N(CC(C)C)CC(O)C(Cc2ccc(N(C)Cc3cccc(C)c3-c3sc4c(c3C(=O)O)CC(C)(C)CC4)cc2)NC(=O)OC2COC3(C)OCCC23)cc1 (stereo not drawn) [Compound I-599] | 0.479 | 2.46 |
| CC1(C)CCc2sc(NC(=O)c3ccccc3CNc3ccc(CC(NC(=O)OC4COC5OCCC45)C(O)CN(CC4CCCC4)S(=O)(=O)c4ccc5c(c4)OCO5)cc3)c(C(=O)O)c2C1 (stereo not drawn) [Compound I-858] | 0.142 | 4.23 |
| COc1ccc(S(=O)(=O)N(CC(C)C)CC(O)C(Cc2ccc(N3CCC(Oc4cc5ccccc5cc4-c4sc5c(c4C(=O)O)CC(C)(C)CC5)C3)cc2)NC(=O)OC2COC3(C)OCCC23)cc1 (stereo not drawn) [Compound I-509] | 0.377 | 1.96 |
